According to paper PMC10512030, “Prolidase-proline oxidase axis is engaged in apoptosis induction by birch buds flavonol santin in endometrial adenocarcinoma cell line” (Frontiers in Molecular Biosciences, 2023):
Where two headings read alike, the source gives them in different places.

How the values were obtained:
[1] = system: cervical adenocarcinoma HeLa cells; assay: Cell viability neutral red uptake assay, HeLa; format: cell-based, human; conditions: read-out: IC50 values ± SD in neutral red uptake assay
[2] = system: normal fibroblasts (dermal fibroblasts CCD25Sk); assay: Cell viability MTT assay, fibroblasts; format: cell-based, human; conditions: for IC50: Fibroblasts, read-out: IC50 values ± SD in MTT assay
[3] = system: normal fibroblasts (dermal fibroblasts CCD25Sk); assay: Cell viability neutral red uptake assay, fibroblasts; format: cell-based, human; conditions: read-out: IC50 values ± SD in neutral red uptake assay
[4] = system: endometrial adenocarcinoma Ishikawa cells; assay: Cell viability neutral red uptake assay, Ishikawa; format: cell-based, human; conditions: read-out: IC50 values ± SD in neutral red uptake assay
[5] = system: cervical adenocarcinoma HeLa cells; assay: Cell viability MTT assay, HeLa; format: cell-based, human
[6] = system: endometrial adenocarcinoma Ishikawa cells; assay: Cell viability MTT assay, Ishikawa; format: cell-based, human; conditions: read-out: IC50 values ± SD in MTT assay
[7] = system: cervical adenocarcinoma HeLa cells; conditions: cited from earlier work; for IC50: HeLa, ref Souza et al., 2017, read-out: IC50 determined by MTT assay
[8] = system: breast epithelial cells MCF 10A; assay: Cell viability MTT assay, MCF 10A; format: cell-based, human; conditions: 48 h
[9] = HeLa, 24 h, read-out: IC50 values ± SD in MTT assay
[10] = HeLa, 48 h, read-out: IC50 values ± SD in MTT assay
[11] = Homo sapiens, HeLa, 24 h, HeLa, 24 h, read-out: IC50 values ± SD in MTT assay
[12] = Homo sapiens, HeLa, 48 h, HeLa, 48 h, read-out: IC50 values ± SD in MTT assay

| SMILES | IC50 ([6]; 24 h) | IC50 ([1]; Homo sapiens, 24 h) | IC50 ([1]; Homo sapiens, 48 h) | IC50 ([2]; Homo sapiens, Fibroblast, 24 h) | IC50 ([2]; Homo sapiens, Fibroblast, 48 h) | IC50 ([3]; Homo sapiens, Fibroblast, 24 h) | IC50 ([3]; Homo sapiens, Fibroblast, 48 h) | IC50 ([4]; Homo sapiens, 24 h) | IC50 ([4]; Homo sapiens, 48 h) | IC50 [5, 11] | IC50 [5, 12] | IC50 ([6]; Homo sapiens, 24 h) | IC50 ([6]; Homo sapiens, 48 h) | also measured |
| --- | --- | --- | --- | --- | --- | --- | --- | --- | --- | --- | --- | --- | --- | --- |
| COc1ccc(-c2cc(=O)c3c(O)cc(OC)cc3o2)cc1 [apigenin 7,4′-O-dimethyl ether] | 26.2 ± 1.9 µM | – | – | – | – | – | – | – | – | – | – | – | – | IC50 ([1]; 24 h): > 50 µM; IC50 ([1]; 48 h): > 50 µM; effect on viability of fibroblasts [2]: significantly decreased viability; IC50 ([2]; 24 h): 18 ± 3.9 µM; IC50 ([2]; 48 h): 10.9 ± 4.6 µM; IC50 ([3]; 24 h): 27.6 ± 2.8 µM; IC50 ([3]; 48 h): 7.6 ± 1.1 µM; IC50 ([4]; 24 h): > 50 µM; IC50 ([4]; 48 h): > 50 µM; IC50 [5, 9]: > 50 µM; IC50 [5, 10]: > 50 µM; IC50 ([6]; 48 h): 20.9 ± 1.4 µM |
| O=c1cc(-c2ccc(O)cc2)oc2cc(O)cc(O)c12 [apigenin, reference compound] | – | ~27 µM | ~14.2 µM | > 50 µM | > 50 µM | > 50 µM | 48.6 ± 3.1 µM | > 50 µM | 38 ± 2.1 µM | ~30 µM | ~17.9 µM | > 50 µM | 33.1 ± 2.2 µM | IC50 ([7]; 24 h): ~38 µM; IC50 ([7]; 48 h): ~10 µM; IC50 ([8]; Homo sapiens): 14.5 ± 1.8 µM |
| COc1cc2oc(-c3ccc(O)cc3)cc(=O)c2c(O)c1OC [cirsimaritin] | > 50 µM | 17.5 ± 2.4 µM | 13.9 ± 1.4 µM | > 50 µM | > 50 µM | > 50 µM | > 50 µM | 34.2 ± 2.7 µM | 26.1 ± 2.1 µM | 36.6 ± 2.2 µM | 16 ± 1.9 µM | > 50 µM | 19.6 ± 2.6 µM | – |
| N.N.[Cl][Pt][Cl] [cisplatin, reference compound] | > 50 µM | – | – | – | – | – | – | – | – | – | – | – | – | IC50 ([1]; 24 h): 20 ± 2.7 µM; IC50 ([1]; 48 h): 9.7 ± 2.3 µM; IC50 ([2]; 24 h): > 50 µM; IC50 ([2]; 48 h): 40.5 ± 4.3 µM; IC50 ([3]; 24 h): > 50 µM; IC50 ([3]; 48 h): 43.1 ± 3.5 µM; IC50 [8]: 17.8 ± 2.3 µM; IC50 ([4]; 24 h): 28.1 ± 2 µM; IC50 ([4]; 48 h): 11.7 ± 2.2 µM; IC50 [5, 9]: 30 ± 2.7 µM; IC50 [5, 10]: 9.4 ± 1.3 µM; IC50 ([6]; 24 h, listed as Cisplatin): > 50 µM; IC50 ([6]; 48 h): 12 ± 2 µM |
| COc1ccc(-c2oc3cc(O)cc(O)c3c(=O)c2OC)cc1 [ermanin] | – | 39 ± 2.9 µM | 33.2 ± 1.9 µM | > 50 µM | > 50 µM | > 50 µM | > 50 µM | > 50 µM | 46.7 ± 3.2 µM | > 50 µM | 31.8 ± 2.4 µM | > 50 µM | > 50 µM | – |
| O=c1c(O)c(-c2ccc(O)cc2)oc2cc(O)cc(O)c12 [kaempferol] | – | > 50 µM | 38.3 ± 2.5 µM | > 50 µM | > 50 µM | > 50 µM | > 50 µM | > 50 µM | > 50 µM | > 50 µM | > 50 µM | > 50 µM | > 50 µM | – |
| COc1cc(O)c2c(=O)c(OC)c(-c3ccc(O)cc3)oc2c1 [kumatakenin] | – | > 50 µM | > 50 µM | 47 ± 5.6 µM | 42.9 ± 4.3 µM | 35.7 ± 2.5 µM | 15.3 ± 2.3 µM | > 50 µM | > 50 µM | > 50 µM | > 50 µM | 30.5 ± 2 µM | 24.2 ± 1.8 µM | effect on viability of fibroblasts ([2]; fibroblasts, MTT and neutral red uptake assays, 24 and 48 h): significantly decreased viability |
| O=c1cc(-c2ccc(O)c(O)c2)oc2cc(O)cc(O)c12 [luteolin, reference compound] | – | 31.5 ± 2.5 µM | ~28 µM | > 50 µM | > 50 µM | > 50 µM | > 50 µM | > 50 µM | 31.6 ± 2.9 µM | 42.8 ± 3.6 µM | – | > 50 µM | 25.9 ± 2.5 µM | reduction in HeLa cell viability ([7]; 20 μM luteolin, MTT assay, 48 h time point, ref Raina et al., 2021): about 50%; IC50 ([8]; Homo sapiens): 8.4 ± 1.5 µM |
| COc1ccc(C2CC(=O)c3c(O)cc(OC)cc3O2)cc1 (centres unmarked) [naringenin 7,4′-O-dimethyl ether] | > 50 µM | – | – | – | – | – | – | – | – | – | – | – | – | IC50 ([1]; 24 h): > 50 µM; IC50 ([1]; 48 h): > 50 µM; IC50 ([2]; 24 h): > 50 µM; IC50 ([2]; 48 h): > 50 µM; IC50 ([3]; 24 h): > 50 µM; IC50 ([3]; 48 h): > 50 µM; IC50 ([4]; 24 h): > 50 µM; IC50 ([4]; 48 h): > 50 µM; IC50 [5, 9]: > 50 µM; IC50 [5, 10]: > 50 µM; IC50 ([5]; cancer cells (HeLa and Ishikawa), MTT and neutral red uptake assays, 24 and 48 h, read-out: IC50, viability of cancer cells): > 50 µM; IC50 ([6]; 48 h): > 50 µM |
| O=c1c(O)c(-c2ccc(O)c(O)c2)oc2cc(O)cc(O)c12 [quercetin] | – | 39.1 ± 3.2 µM | 36.9 ± 2 µM | > 50 µM | > 50 µM | > 50 µM | > 50 µM | > 50 µM | 42.9 ± 3.8 µM | > 50 µM | > 50 µM | > 50 µM | 45.4 ± 4.1 µM | – |
| COc1cc(O)c2c(c1)O[C@H](c1ccc(O)cc1)CC2=O [sakuranetin] | – | > 50 µM | > 50 µM | > 50 µM | > 50 µM | > 50 µM | > 50 µM | > 50 µM | > 50 µM | > 50 µM | > 50 µM | > 50 µM | > 50 µM | IC50 ([5]; Homo sapiens, HeLa, cancer cells (HeLa and Ishikawa), MTT and neutral red uptake assays, 24 and 48 h, read-out: IC50, viability of cancer cells): > 50 µM |
